Source: the kinase profiling compilation of Christmann-Franck et al. (2016)

How the values were obtained:
Assay in all cases: KINOMEscan competition binding
Conditions in all cases: compound 10.0 µM; call rule not given here
[1] = target: FGFR2 (human) (UniProt P21802)
[2] = target: STK25 (human) (UniProt O00506)
[3] = target: PAK4 (human) (UniProt O96013)
[4] = target: NEK7 (human) (UniProt Q8TDX7)
[5] = target: RPS6KA6 KD1 (human) (UniProt Q9UK32)
[6] = target: STK32C (human) (UniProt Q86UX6)
[7] = target: AKT2 (human) (UniProt P31751)
[8] = target: PKMYT1 (human) (UniProt Q99640)
[9] = target: PRKX (human) (UniProt P51817)
[10] = target: LIMK2 (human) (UniProt P53671)
[11] = target: RIPK2 (human) (UniProt O43353)
[12] = target: PRKG1 (human) (UniProt Q13976)
[13] = target: CDC42BPA (human) (UniProt Q5VT25)
[14] = target: EGFR (human) (UniProt P00533)
[15] = target: INSR (human) (UniProt P06213)
[16] = target: MAPK14 (human) (UniProt Q16539)
[17] = target: CAMKK2 (human) (UniProt Q96RR4)
[18] = target: ADCK3 (human) (UniProt Q8NI60)
[19] = target: PLK1 (human) (UniProt P53350)
[20] = target: PIM1 (human) (UniProt P11309)
[21] = target: CAMK2D (human) (UniProt Q13557)
[22] = target: PRKACB (human) (UniProt P22694)
[23] = target: FGFR3 (human) (UniProt P22607)
[24] = target: MARK1 (human) (UniProt Q9P0L2)
[25] = target: TYRO3 (human) (UniProt Q06418)
[26] = target: MAPK1 (human) (UniProt P28482)
[27] = target: MAPK3 (human) (UniProt P27361)
[28] = target: EPHB3 (human) (UniProt P54753)
[29] = target: LIMK1 (human) (UniProt P53667)
[30] = target: CAMK1 (human) (UniProt Q14012)
[31] = target: INSRR (human) (UniProt P14616)
[32] = target: PRKCA (human) (UniProt P17252)
[33] = target: ERBB4 (human) (UniProt Q15303)
[34] = target: CSK (human) (UniProt P41240)
[35] = target: EPHA4 (human) (UniProt P54764)
[36] = target: STK32B (human) (UniProt Q9NY57)
[37] = target: RPS6KA4 KD1 (human) (UniProt O75676)
[38] = target: CAMK2B (human) (UniProt Q13554)
[39] = target: NEK2 (human) (UniProt P51955)
[40] = target: ADCK4 (human) (UniProt Q96D53)

Sequence of CAMKK2 (human) (Q96RR4 whole entry, looked up): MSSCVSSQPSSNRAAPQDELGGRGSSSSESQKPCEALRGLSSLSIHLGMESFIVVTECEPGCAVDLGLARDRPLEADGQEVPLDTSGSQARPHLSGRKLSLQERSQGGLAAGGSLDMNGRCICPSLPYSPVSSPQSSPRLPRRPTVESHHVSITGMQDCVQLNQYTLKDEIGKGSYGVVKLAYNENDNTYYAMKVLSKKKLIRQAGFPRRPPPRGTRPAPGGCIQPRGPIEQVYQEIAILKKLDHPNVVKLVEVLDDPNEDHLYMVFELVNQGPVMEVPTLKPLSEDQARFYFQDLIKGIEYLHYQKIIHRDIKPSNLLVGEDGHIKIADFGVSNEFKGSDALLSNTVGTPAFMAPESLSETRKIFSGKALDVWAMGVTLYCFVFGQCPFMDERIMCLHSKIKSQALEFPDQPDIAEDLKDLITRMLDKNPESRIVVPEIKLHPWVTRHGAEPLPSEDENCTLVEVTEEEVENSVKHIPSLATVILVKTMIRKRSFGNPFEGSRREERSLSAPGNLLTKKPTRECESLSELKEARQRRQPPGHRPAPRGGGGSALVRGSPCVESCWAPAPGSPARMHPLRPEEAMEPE
Sequence of ERBB4 (human) (Q15303 whole entry, looked up): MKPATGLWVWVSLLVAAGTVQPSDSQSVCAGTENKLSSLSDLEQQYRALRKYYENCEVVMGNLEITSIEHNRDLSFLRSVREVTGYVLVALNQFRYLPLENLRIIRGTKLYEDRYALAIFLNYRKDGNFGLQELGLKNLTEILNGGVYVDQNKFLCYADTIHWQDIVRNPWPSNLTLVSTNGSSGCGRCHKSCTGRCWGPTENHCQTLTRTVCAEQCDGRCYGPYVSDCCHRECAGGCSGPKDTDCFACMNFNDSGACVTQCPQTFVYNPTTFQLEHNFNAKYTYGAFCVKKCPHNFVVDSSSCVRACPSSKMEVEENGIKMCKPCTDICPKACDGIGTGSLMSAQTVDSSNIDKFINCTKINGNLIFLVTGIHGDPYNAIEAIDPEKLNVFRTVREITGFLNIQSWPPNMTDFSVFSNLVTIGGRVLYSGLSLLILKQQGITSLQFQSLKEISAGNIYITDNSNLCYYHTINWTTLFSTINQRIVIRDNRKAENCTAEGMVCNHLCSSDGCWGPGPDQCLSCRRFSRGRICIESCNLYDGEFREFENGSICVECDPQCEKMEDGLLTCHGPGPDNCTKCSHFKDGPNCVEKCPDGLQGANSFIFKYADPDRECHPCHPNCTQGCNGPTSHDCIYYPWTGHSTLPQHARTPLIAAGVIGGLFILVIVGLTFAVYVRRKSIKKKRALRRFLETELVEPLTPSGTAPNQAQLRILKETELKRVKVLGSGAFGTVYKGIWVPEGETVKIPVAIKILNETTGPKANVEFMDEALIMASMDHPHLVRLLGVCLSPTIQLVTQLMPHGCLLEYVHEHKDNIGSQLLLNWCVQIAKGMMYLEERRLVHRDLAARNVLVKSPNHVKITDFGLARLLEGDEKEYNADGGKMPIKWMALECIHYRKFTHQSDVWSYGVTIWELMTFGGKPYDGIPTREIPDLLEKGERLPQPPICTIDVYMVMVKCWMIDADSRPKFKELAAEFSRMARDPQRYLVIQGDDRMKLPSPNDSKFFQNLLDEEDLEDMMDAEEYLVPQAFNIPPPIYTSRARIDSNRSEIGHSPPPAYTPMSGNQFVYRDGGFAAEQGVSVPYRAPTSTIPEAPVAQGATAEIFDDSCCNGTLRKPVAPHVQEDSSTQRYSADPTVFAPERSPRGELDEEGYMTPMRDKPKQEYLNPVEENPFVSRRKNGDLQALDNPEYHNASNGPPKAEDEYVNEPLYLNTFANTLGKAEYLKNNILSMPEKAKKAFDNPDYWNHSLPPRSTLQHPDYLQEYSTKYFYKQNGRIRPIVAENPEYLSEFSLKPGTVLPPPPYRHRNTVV
Sequence of MAPK1 (human) (P28482 whole entry, looked up): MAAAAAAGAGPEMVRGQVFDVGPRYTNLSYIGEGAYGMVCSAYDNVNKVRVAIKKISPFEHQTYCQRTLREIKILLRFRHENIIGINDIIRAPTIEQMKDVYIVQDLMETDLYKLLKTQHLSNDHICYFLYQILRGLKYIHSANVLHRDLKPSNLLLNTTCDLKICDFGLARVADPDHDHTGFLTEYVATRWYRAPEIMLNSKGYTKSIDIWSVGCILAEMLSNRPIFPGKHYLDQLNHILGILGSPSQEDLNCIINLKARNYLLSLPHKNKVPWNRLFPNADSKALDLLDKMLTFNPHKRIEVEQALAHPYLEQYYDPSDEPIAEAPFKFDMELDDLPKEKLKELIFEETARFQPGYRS
Sequence of FGFR3 (human) (P22607 whole entry, looked up): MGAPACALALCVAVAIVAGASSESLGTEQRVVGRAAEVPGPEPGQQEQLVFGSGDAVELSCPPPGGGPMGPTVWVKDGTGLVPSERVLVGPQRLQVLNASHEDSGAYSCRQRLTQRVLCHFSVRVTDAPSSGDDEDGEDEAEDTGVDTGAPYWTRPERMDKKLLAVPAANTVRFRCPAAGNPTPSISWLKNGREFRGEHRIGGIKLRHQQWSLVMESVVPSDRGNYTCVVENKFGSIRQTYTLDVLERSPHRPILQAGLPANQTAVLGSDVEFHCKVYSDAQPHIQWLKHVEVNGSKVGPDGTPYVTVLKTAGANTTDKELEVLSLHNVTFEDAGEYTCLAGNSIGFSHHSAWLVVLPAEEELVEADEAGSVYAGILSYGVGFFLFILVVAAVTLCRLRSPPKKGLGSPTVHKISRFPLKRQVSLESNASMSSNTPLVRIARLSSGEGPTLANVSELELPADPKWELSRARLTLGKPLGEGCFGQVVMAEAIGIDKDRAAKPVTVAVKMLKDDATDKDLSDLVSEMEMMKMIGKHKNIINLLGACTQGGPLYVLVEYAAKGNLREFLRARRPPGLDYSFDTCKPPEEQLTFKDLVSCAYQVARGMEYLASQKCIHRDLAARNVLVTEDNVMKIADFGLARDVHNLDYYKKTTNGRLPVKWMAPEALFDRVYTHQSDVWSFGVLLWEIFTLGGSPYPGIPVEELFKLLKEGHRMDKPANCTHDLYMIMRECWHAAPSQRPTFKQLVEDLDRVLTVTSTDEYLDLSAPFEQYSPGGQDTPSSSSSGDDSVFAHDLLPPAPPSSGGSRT
Sequence of PLK1 (human) (P53350 whole entry, looked up): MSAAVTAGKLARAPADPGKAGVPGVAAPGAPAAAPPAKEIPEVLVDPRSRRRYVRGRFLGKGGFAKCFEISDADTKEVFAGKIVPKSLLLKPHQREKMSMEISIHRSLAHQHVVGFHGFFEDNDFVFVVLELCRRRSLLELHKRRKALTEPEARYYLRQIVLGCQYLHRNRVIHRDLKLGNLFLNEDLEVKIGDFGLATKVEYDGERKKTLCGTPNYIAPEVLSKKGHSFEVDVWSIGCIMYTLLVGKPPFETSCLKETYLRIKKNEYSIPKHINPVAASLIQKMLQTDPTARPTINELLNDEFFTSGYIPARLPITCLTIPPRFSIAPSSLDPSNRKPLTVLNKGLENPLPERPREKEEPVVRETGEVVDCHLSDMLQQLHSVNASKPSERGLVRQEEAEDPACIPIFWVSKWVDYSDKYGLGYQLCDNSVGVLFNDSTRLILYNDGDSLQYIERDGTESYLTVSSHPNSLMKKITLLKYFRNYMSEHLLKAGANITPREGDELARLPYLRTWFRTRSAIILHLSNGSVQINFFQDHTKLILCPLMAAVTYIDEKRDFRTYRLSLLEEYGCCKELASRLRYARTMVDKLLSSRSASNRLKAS
Sequence of EPHB3 (human) (P54753 whole entry, looked up): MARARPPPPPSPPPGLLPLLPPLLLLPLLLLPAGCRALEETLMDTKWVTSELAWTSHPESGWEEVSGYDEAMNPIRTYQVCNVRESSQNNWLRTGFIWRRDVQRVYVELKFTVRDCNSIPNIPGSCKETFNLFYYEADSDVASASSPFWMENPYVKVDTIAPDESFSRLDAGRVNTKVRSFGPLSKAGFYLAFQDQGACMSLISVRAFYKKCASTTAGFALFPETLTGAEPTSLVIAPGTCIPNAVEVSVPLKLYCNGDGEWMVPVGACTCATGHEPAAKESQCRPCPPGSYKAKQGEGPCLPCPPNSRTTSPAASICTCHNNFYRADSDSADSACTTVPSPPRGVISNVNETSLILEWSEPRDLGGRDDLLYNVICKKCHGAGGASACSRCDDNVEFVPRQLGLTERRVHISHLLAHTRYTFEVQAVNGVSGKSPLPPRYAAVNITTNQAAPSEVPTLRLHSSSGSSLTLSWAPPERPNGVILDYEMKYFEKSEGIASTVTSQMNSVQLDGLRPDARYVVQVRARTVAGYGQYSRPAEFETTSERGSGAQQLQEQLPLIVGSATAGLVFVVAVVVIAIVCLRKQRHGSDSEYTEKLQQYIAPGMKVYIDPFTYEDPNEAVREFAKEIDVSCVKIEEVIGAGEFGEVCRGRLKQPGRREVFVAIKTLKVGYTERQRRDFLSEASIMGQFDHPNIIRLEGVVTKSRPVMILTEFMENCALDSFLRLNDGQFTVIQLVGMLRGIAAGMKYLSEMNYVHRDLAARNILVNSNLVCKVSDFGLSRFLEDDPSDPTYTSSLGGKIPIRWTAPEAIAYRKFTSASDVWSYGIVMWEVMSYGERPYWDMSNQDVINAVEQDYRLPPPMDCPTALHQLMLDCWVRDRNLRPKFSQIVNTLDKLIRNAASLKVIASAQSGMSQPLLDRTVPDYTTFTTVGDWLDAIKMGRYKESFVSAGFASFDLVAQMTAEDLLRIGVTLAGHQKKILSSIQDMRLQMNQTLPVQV
Sequence of STK32B (human) (Q9NY57 whole entry, looked up): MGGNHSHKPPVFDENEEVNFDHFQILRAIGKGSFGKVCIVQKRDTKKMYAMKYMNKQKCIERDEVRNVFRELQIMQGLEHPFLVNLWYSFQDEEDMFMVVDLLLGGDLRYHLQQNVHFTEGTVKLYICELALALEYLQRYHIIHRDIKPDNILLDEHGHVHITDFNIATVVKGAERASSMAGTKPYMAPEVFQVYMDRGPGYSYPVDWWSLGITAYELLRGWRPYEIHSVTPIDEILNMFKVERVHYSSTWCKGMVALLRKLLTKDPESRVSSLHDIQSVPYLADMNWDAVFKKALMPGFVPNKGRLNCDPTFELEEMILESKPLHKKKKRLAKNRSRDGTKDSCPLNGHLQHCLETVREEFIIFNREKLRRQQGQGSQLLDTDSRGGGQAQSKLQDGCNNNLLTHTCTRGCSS

Row | kinase still bound, per cent of control [1] | kinase still bound, per cent of control [2] | kinase still bound, per cent of control [3] | kinase still bound, per cent of control [4] | kinase still bound, per cent of control [5] | kinase still bound, per cent of control [6] | kinase still bound, per cent of control [7] | kinase still bound, per cent of control [8] | kinase still bound, per cent of control [10] | kinase still bound, per cent of control [11] | kinase still bound, per cent of control [13] | kinase still bound, per cent of control [14] | kinase still bound, per cent of control [15] | kinase still bound, per cent of control [16] | kinase still bound, per cent of control [17] | kinase still bound, per cent of control [18] | kinase still bound, per cent of control [19] | kinase still bound, per cent of control [20] | kinase still bound, per cent of control [21] | kinase still bound, per cent of control [23] | SMILES | also measured
1 | no effect (inactive) | no effect (inactive) | no effect (inactive) | no effect (inactive) | no effect (inactive) | no effect (inactive) | no effect (inactive) | no effect (inactive) | no effect (inactive) | no effect (inactive) | no effect (inactive) | no effect (inactive) | no effect (inactive) | no effect (inactive) | no effect (inactive) | no effect (inactive) | no effect (inactive) | no effect (inactive) | no effect (inactive) | no effect (inactive) | NC(=O)c1ccc(Nc2cc(-c3ccc(F)cc3)[nH]n2)cc1 | kinase still bound, per cent of control [9]: no effect (inactive); kinase still bound, per cent of control [12]: no effect (inactive); kinase still bound, per cent of control [22]: no effect (inactive); kinase still bound, per cent of control [24]: no effect (inactive); kinase still bound, per cent of control [25]: no effect (inactive); kinase still bound, per cent of control [26]: no effect (inactive); kinase still bound, per cent of control [27]: no effect (inactive); kinase still bound, per cent of control [28]: no effect (inactive); kinase still bound, per cent of control [29]: no effect (inactive); kinase still bound, per cent of control [30]: no effect (inactive); kinase still bound, per cent of control [31]: no effect (inactive); kinase still bound, per cent of control [32]: no effect (inactive); kinase still bound, per cent of control [33]: no effect (inactive); kinase still bound, per cent of control [34]: no effect (inactive); kinase still bound, per cent of control [35]: no effect (inactive); kinase still bound, per cent of control [36]: no effect (inactive); kinase still bound, per cent of control [37]: no effect (inactive)
2 | no effect (inactive) | no effect (inactive) | no effect (inactive) | no effect (inactive) | no effect (inactive) | no effect (inactive) | no effect (inactive) | no effect (inactive) | no effect (inactive) | no effect (inactive) | no effect (inactive) | no effect (inactive) | no effect (inactive) | no effect (inactive) | no effect (inactive) | no effect (inactive) | no effect (inactive) | no effect (inactive) | no effect (inactive) | no effect (inactive) | NC(=O)c1ccc(-c2cc(C(N)=O)c(N)c(-c3ccc(S(N)(=O)=O)cc3)c2)cc1 | kinase still bound, per cent of control [38]: no effect (inactive); kinase still bound, per cent of control [39]: no effect (inactive); kinase still bound, per cent of control [40]: no effect (inactive); kinase still bound, per cent of control [24]: no effect (inactive); kinase still bound, per cent of control [25]: no effect (inactive); kinase still bound, per cent of control [26]: no effect (inactive); kinase still bound, per cent of control [27]: no effect (inactive); kinase still bound, per cent of control [28]: no effect (inactive); kinase still bound, per cent of control [29]: no effect (inactive); kinase still bound, per cent of control [30]: no effect (inactive); kinase still bound, per cent of control [31]: no effect (inactive); kinase still bound, per cent of control [33]: no effect (inactive); kinase still bound, per cent of control [34]: no effect (inactive); kinase still bound, per cent of control [35]: no effect (inactive); kinase still bound, per cent of control [36]: no effect (inactive); kinase still bound, per cent of control [37]: no effect (inactive)
3 | 0.1% | 0.4% | 0.2% | no effect (inactive) | 0% | no effect (inactive) | no effect (inactive) | no effect (inactive) | no effect (inactive) | 6.9% | no effect (inactive) | 21.2% | 0% | no effect (inactive) | 0.1% | 27.2% | 1.55% | 12.8% | 2% | 0% | CCS(=O)(=O)Nc1ccc2c(c1)[C@H](/C(=N/c1ccc(CN3CCCCC3)cc1)c1ccccc1)C(=O)N2 | kinase still bound, per cent of control [38]: 4.6%; kinase still bound, per cent of control [39]: 0%; kinase still bound, per cent of control [9]: 24.8%; kinase still bound, per cent of control [12]: 0.15%; kinase still bound, per cent of control [22]: 7%; kinase still bound, per cent of control [40]: no effect (inactive); kinase still bound, per cent of control [24]: 0%; kinase still bound, per cent of control [25]: 0.2%; kinase still bound, per cent of control [26]: 14%; kinase still bound, per cent of control [27]: 10.8%; kinase still bound, per cent of control [28]: 7.2%; kinase still bound, per cent of control [29]: no effect (inactive); kinase still bound, per cent of control [30]: 8.3%; kinase still bound, per cent of control [31]: 0%; kinase still bound, per cent of control [32]: 2.5%; kinase still bound, per cent of control [33]: 34.7%; kinase still bound, per cent of control [34]: 0%; kinase still bound, per cent of control [35]: 3.6%; kinase still bound, per cent of control [36]: 15.4%; kinase still bound, per cent of control [37]: 0%
